Laboratory results taken from PMC10131204 (JACS Au, 2023).
Where two headings read alike, the source gives them in different places.

Tests used:
[1] = system: FKBP-cSnap and FRB-nSnap; format: biochemical
[2] = target: DOR; settings: cited from earlier work
[3] = system: DOR; format: cell-based; settings: 10 µM compound, off-DNA

**Q.** With `CCC(C)(C)C(=O)C(=O)N1CCCC[C@H]1C(=O)O[C@H](CCc1ccc(OC)c(OC)c1)c1cccc(OCC(=O)O)c1` [SLF, synthetic ligand for FKBP] as the compound, how does the “protein labeling with BG-FAM (SnapTag reconstitution)” value [1] read?
**A.** Its value is “did not induce protein labeling”.

**Q.** Which Ki ([2]; high-affinity parental peptide) does the source give for Dmt-Pro-Phe-Phe here?
**A.** The Ki was roughly 28 nM.

**Q.** With “Met-Enk-RF: a β-arrestin-biased DOR agonist peptide; strong G-protein bias for the MOR (YGGFMRF; Met-enkephalin-Arg-Phe; UniProt P01210 261-267, looked up)” as the compound, how does the “biotinylation of the DOR (β-arrestin activation) in gel-based assay” value [3] read?
**A.** The value was “markedly increased the biotinylation level”.

**Q.** With Tyr-Tic as the compound, how does the Ki ([2]; low-affinity parental peptide) read?
**A.** Its Ki is roughly 240 nM.
